This note sets out measurements from patent US20200368235A1, “IBRUTINIB COMBINATION THERAPY” (Pharmacyclics LLC, priority 2013, published 2020).

Common to all, as to type: cell-based
For assay [1], the system named is 17 Diffuse Large B Cell Lymphoma (DLBCL) cell lines. Briefly: High throughput screen of ibrutinib combinations, growth inhibition by ATP-lite at 72h. The following applies: for synergy in combination with JNJ-02 (ibrutinib): synergy score heat map across DLBCL cell lines. The procedure:
(§1) A high throughput screen of 17 Diffuse Large B Cell Lymphoma (DLBCL) cell lines was conducted for their response to Ibrutinib in combination with 99 anti-cancer agents selected from among standard-of-care and emerging therapeutics and targeted agents. The goal of the project was to identify and quantify specific synergies with Ibrutinib to identify pathways that contribute to clinical response. Examples of therapeutics tested included first-line DLBCL therapeutics: RCHOP (Rituximab, Cyclophosphamide, Doxorubicin, Vincristine, Prednisone) or EPOCH (+Etoposide) and Second-line therapeutics: Dexamethasone, Prednisone, Etoposide, Vincristine, Gemcitabine, Carboplatin, Ifosfamide, Bendamustine, Cyclophosphamide, Rituximab, Lenalidomide, and Anthracycline.
(§2) The 17 DLBCL cell lines tested were DB, DOHH-2, HBL-1, HT, NU-DHL-1, OCI-Lyl, OCI-Ly10, OCI-Ly18, OCI-Ly19, OCI-Ly3, OCI-Ly7, Pfeiffer, SU-DHL-5, SU-DHL-6, SU-DHL-8, TMD8 and Toledo. Eight of the cell lines were screened in human MSC-conditioned medium (hMSC-CM) and nine of the cell lines were screened with hMSC-CM+1 ug/ml each of anti-IgM and anti-IgG. The assay was performed in a 384-well format (6×6 HFDR format) with intra-plate replicates (Ibrutinib n=4; enhancers n=2; combination n=1), inter-plate replicates (n=3) and 20 self-crosses. The dose-response matrix screening was designed to detect both types of multi-target interaction, potency shifts or efficacy boosts.
(§3) The cells were seeded 24h before dosing. Cells were dosed with ibrutinib (JNJ-02) and the test compounds at varying concentrations as depicted in FIGS. 18-39G. At T0 (0h after dosing) and T72 (72h after dosing) ATP-lite raw values were obtained. Growth inhibition of the cell culture was measured as follows:
(§4) Measure untreated at time 0 (V0) (the time at which drugs are added), treated (T) and untreated (V) (at assay end point (72h).
(§5) 100% (Total growth inhibition)—treatment viability signal and 0h vehicle viability signal are matched. (T=V0)
(§6) 200% (complete kill)—treatment viability signal is 0. (T=0)
(§7) The growth inhibition measure is sensitive to the cell doubling time (e.g., it measures the fraction of (net) growth inhibition during the assay period). Growth inhibition gives additional valuable information. For example, 0%-100% (growth inhibition) represents % reduction in net increase in the cells with vehicle during drug incubation period, 100% represents no net increase in viability signal at T72 and T0) (i.e., cytostatic) and 100%-200% (killing zone) represents cytotoxic effects.

The next assay concerns TMD8 cell line. Kind of assay: High throughput combination screen, growth inhibition (ATP-lite). As for the experimental part:
as §1, §2, §3, §4, §5, §6, §7

The test system of a further assay is DOHH-2 cell line. The description is as above. The procedure: as §1, §2, §3, §4, §5, §6, §7
For the next assay, the system named is OCI-Ly18 cell line. Described as above. The procedure:
as §1, §2, §3, §4, §5, §6, §7

For the molecule `CN(C)CC[C@H](CSc1ccccc1)Nc1ccc(S(=O)(=O)NC(=O)c2ccc(N3CCN(Cc4ccccc4-c4ccc(Cl)cc4)CC3)cc2)cc1[N+](=O)[O-]` [ABT-737], the “synergy in combination with JNJ-02 (ibrutinib)” value (“synergy in combination” below) in assay [1] is “strong synergy and good breadth of activity”.
In the case of `CC(C)c1c(C(=O)Nc2ccccc2)c(-c2ccccc2)c(-c2ccc(F)cc2)n1CC[C@@H](O)C[C@@H](O)CC(=O)O` [Atrovastatin], the “synergy in combination” value in assay [1] is listed as “synergizes”.
Take `CCOC(=O)C1=C(N)Oc2ccc(Br)cc2C1C(C#N)C(=O)OCC` (stereo not drawn) [HA14-1]: the “synergy in combination” value in assay [1] was “modest synergy in selected cell lines”.
In the case of `O=C(c1ccc(Nc2nccc(-c3cc4ccccc4s3)n2)cc1)N1CCC(N2CCCC2)CC1` [IKK inhibitor VII], the “synergy in combination” value in assay [1] is “strong synergy and good breadth of activity”.
`Nc1cccc2c1CN(C1CCC(=O)NC1=O)C2=O` (stereo not drawn) [Lenalidomide]: the entries for the “synergy with JNJ-02 (ibrutinib)” value in the assay with TMD8 cell line (combination with ibrutinib), in the assay on DOHH-2 cell line (combination with ibrutinib) and in the assay on OCI-Ly18 cell line (combination with ibrutinib) were “synergizes”, “does not show synergy” and “does not show synergy”, respectively. Further, the “activity as a single agent” value in the assay on TMD8 cell line (single agent) is recorded as “not active as a single agent”; in the assay on DOHH-2 cell line (single agent) it was “active as a single agent”; in the assay on OCI-Ly18 cell line (single agent) it was “active as a single agent”; in assay [1] (single agent, cell line not given), “not active as a single agent”. For the same molecule, in assay [1], the “synergy in combination” value was “synergized”.
Take `C[C@]12C=CC(=O)C=C1CC[C@@H]1[C@@H]2[C@@H](O)C[C@@]2(C)[C@H]1CC[C@]2(O)C(=O)CO` [prednisolone]: the “synergy in combination” value in assay [1] is “strong synergy and good breadth of activity”.
Still for that read-out and setting: the entry for rituximab is “Synergy is observed”.

B1: siltuximab (antibody, chains of the INN, looked up, V domains shown)
VH: EVQLVESGGKLLKPGGSLKLSCAASGFTFSSFAMSWFRQSPEKRLEWVAEISSGGSYTYYPDTVTGRFTISRDNAKNTLYLEMSSLRSEDTAMYYCARGLWGYYALDYWGQGTSVTVSS
VL: QIVLIQSPAIMSASPGEKVTMTCSASSSVSYMYWYQQKPGSSPRLLIYDTSNLASGVPVRFSGSGSGTSYSLTISRMEAEDAATYYCQQWSGYPYTFGGGTKLEIK
Consider B1, for which the “synergy in combination” value in assay [1] was “not”.
